In PubChem BioAssay AID248 (DTP/NCI, 2004):
Where “and” joins values, the source holds several entries; their conditions need not be identical. Equal entries are not always repeated. Inconclusive results and toxic doses are left out. Rule as the data show it: active = T/C of 150% or more; inactive = T/C below 125%.

Tested on: L1210 leukemia ip in BDF1 mice, survival T/C
Test: NCI In Vivo Anticancer Drug Screen. Data for tumor model L1210 Leukemia (intraperitoneal) in B6D2F1 (BDF1) mice
Conditions: endpoint: mean survival time, higher = longer survival
Summary of the method: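 Tumor was transplanted into mice, which were then dosed with test compound or vehicle alone. Survival was recorded for each group, and the treated figure was expressed relative to the control figure.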

[1] = dose: 12.5 mg/kg/injection, schedule: Q04DX002 (ip), vehicle: Klucel (hydroxypropylcellulose) (HPC)
[2] = dose: 100.0 mg/kg/injection, schedule: Q04DX002 (ip), vehicle: saline with Tween-80
[3] = dose: 200.0 mg/kg/injection, schedule: Q04DX002 (ip), vehicle: saline with Tween-80
[4] = dose: 100.0 mg/kg/injection, schedule: Q04DX003 (ip), vehicle: saline
[5] = dose: 400.0 mg/kg/injection, schedule: Q04DX003 (ip), vehicle: saline
[6] = dose: 100.0 mg/kg/injection, schedule: Q01DX009 (ip), vehicle: saline
[7] = dose: 200.0 mg/kg/injection, schedule: Q04DX003 (ip), vehicle: saline
[8] = dose: 25.0 mg/kg/injection, schedule: Q01DX009 (ip), vehicle: Klucel (hydroxypropylcellulose) (HPC)
[9] = dose: 50.0 mg/kg/injection, schedule: Q01DX009 (ip), vehicle: Klucel (hydroxypropylcellulose) (HPC)
[10] = dose: 50.0 mg/kg/injection, schedule: Q04DX003 (ip), vehicle: Klucel (hydroxypropylcellulose) (HPC)
[11] = dose: 100.0 mg/kg/injection, schedule: Q04DX003 (ip), vehicle: Klucel (hydroxypropylcellulose) (HPC)
[12] = dose: 100.0 mg/kg/injection, schedule: Q01DX009 (ip), vehicle: Klucel (hydroxypropylcellulose) (HPC)
[13] = dose: 200.0 mg/kg/injection, schedule: Q04DX003 (ip), vehicle: Klucel (hydroxypropylcellulose) (HPC)
[14] = dose: 400.0 mg/kg/injection, schedule: Q04DX003 (ip), vehicle: Klucel (hydroxypropylcellulose) (HPC)
[15] = dose: 100.0 mg/kg/injection, schedule: Q04DX003 (ip), vehicle: saline with Tween-80
[16] = dose: 200.0 mg/kg/injection, schedule: Q04DX003 (ip), vehicle: saline with Tween-80
[17] = dose: 400.0 mg/kg/injection, schedule: Q04DX003 (ip), vehicle: saline with Tween-80
[18] = dose: 25.0 mg/kg/injection, schedule: Q01DX009 (ip), vehicle: saline
[19] = dose: 50.0 mg/kg/injection, schedule: Q01DX009 (ip), vehicle: saline
[20] = dose: 400.0 mg/kg/injection, schedule: Q04DX002 (ip), vehicle: saline with Tween-80

Measured: T/C

CC[S][Pb]([c]1ccccc1)([c]1ccccc1)[c]1ccccc1
inactive: [1] 103 % of control

CCOC(=O)c1ccc(NC(=S)NC(=O)c2ccccc2)cc1
inactive: [2] 100 % of control | [3] 94 % of control

COC1=Nc2ccccc2/C=C\c2ccccc21
inactive: dose: 100.0 mg/kg/injection, schedule: Q04DX002 (ip), vehicle: carboxymethylcellulose (CMC) 96 % of control | dose: 200.0 mg/kg/injection, schedule: Q04DX002 (ip), vehicle: carboxymethylcellulose (CMC) 89 % of control | dose: 400.0 mg/kg/injection, schedule: Q04DX002 (ip), vehicle: carboxymethylcellulose (CMC) 89 % of control

CCCCCCCCCCCCCCCCCCCCC(C(=O)O)S(=O)(=O)O (stereo not drawn)
inactive: [4] 95 % of control | [5] 96 % of control

Nc1ccc2nc[nH]c2c1
inactive: [6] 98 % of control | [4] 101 % of control | dose: 200.0 mg/kg/injection, schedule: Q01DX009 (ip), vehicle: saline 95 % of control | [7] 104 % of control | dose: 400.0 mg/kg/injection, schedule: Q01DX009 (ip), vehicle: saline 87 % of control | [5] 102 % of control

O=Ic1ccccc1
inactive: [8] 103 % of control | [9] 98 % of control | [10] 93 % of control | [11] 89 % of control

Cc1ccc(C)c(NC(=O)Oc2ccc(Cl)cc2Cl)c1
inactive: [8] 87 % of control | [9] 100 % of control | [12] 110 % of control | [11] 90 % of control | [13] 94 % of control | [14] 106 % of control

CC(=O)Nc1cc(Cl)cc(Cl)c1
inactive: [15] 100 % of control | [16] 102 % of control | [17] 96 % of control

O=C(Nc1ccc([N+](=O)[O-])cc1)N(c1cc(Cl)ccn1)C1CCCCC1
inactive: dose: 100.0 mg/kg/injection, schedule: Q01DX001 (ip), vehicle: saline 96 % of control | dose: 200.0 mg/kg/injection, schedule: Q01DX001 (ip), vehicle: saline 90 % of control | dose: 400.0 mg/kg/injection, schedule: Q01DX001 (ip), vehicle: saline 96 % of control

C=C(C)C(=O)[O][Sn]([CH2]CCC)([CH2]CCC)[CH2]CCC
inactive: dose: 0.39 mg/kg/injection, schedule: Q01DX009 (ip), vehicle: saline 98 % of control | dose: 0.78 mg/kg/injection, schedule: Q01DX009 (ip), vehicle: saline 105 % of control | dose: 1.56 mg/kg/injection, schedule: Q01DX009 (ip), vehicle: saline 94 % of control | dose: 6.25 mg/kg/injection, schedule: Q01DX009 (ip), vehicle: saline 92 % of control

O=C(O)c1ccc(S(=O)(=O)Cl)cc1
inactive: [1] 97 % of control | dose: 25.0 mg/kg/injection, schedule: Q04DX002 (ip), vehicle: Klucel (hydroxypropylcellulose) (HPC) 90 % of control | dose: 50.0 mg/kg/injection, schedule: Q04DX002 (ip), vehicle: Klucel (hydroxypropylcellulose) (HPC) 107 % of control

CCCCCCCCC(=O)N(C)CCO
inactive: [18] 104 % of control | [19] 96 % of control | [6] 100 % of control | [4] 109 % of control | [16] 95 % of control | [7] 98 % of control

CC(CO)(CO)Cc1ccccc1
inactive: [2] 97 % of control | [3] 108 % of control | [20] 120 % of control

C/C(=N/NC(=O)c1ccc(N)cc1)c1ccc(C)cc1
inactive: dose: 100.0 mg/kg/injection, schedule: Q04DX002 (ip), vehicle: Klucel (hydroxypropylcellulose) (HPC) 110 % of control | dose: 200.0 mg/kg/injection, schedule: Q04DX002 (ip), vehicle: Klucel (hydroxypropylcellulose) (HPC) 89 % of control

CCCCCCCC(=O)Nc1cccc(C)c1C
inactive: [15] 101 % of control | [16] 87 % of control | [17] 101 % of control

C=C1C(=O)OC2CC(C)C3CC(=O)C(C)=C3C(O)C12 (stereo not drawn)
inactive: [18] 94 % of control | [19] 98 % of control

COc1ccc(OC)c(NC(=O)Nc2cc(C(F)(F)F)ccc2Cl)c1
inactive: [12] 104 % of control | dose: 400.0 mg/kg/injection, schedule: Q01DX009 (ip), vehicle: Klucel (hydroxypropylcellulose) (HPC) 91 % of control

COC(=O)c1ncn(/C=C/c2ccccc2)c1C(=O)O
inactive: [11] 92 % of control | [13] 91 % of control | [14] 87 % of control

CCOC(=O)C(C)CC(C)(C(=O)OCC)C(=O)OCC (stereo not drawn)
inactive: dose: 25.0 mg/kg/injection, schedule: Q04DX003 (ip), vehicle: Klucel (hydroxypropylcellulose) (HPC) 98 % of control | [9] 93 % of control | [10] 103 % of control | [12] 104 % of control | [11] 98 % of control and 103 % of control | dose: 200.0 mg/kg/injection, schedule: Q01DX009 (ip), vehicle: Klucel (hydroxypropylcellulose) (HPC) 100 % of control

Cc1cccc2cc3c(ccc4ccccc43)c[n+]12
inactive: dose: 2.0 mg/kg/injection, schedule: Q01DX015 (ip), vehicle: carboxymethylcellulose (CMC) 101 % of control | dose: 4.0 mg/kg/injection, schedule: Q01DX015 (ip), vehicle: carboxymethylcellulose (CMC) 108 % of control | dose: 5.0 mg/kg/injection, schedule: Q04DX003 (ip), vehicle: Klucel (hydroxypropylcellulose) (HPC) 106 % of control | dose: 6.25 mg/kg/injection, schedule: Q01DX009 (ip), vehicle: saline with Tween-80 98 % of control | dose: 6.25 mg/kg/injection, schedule: Q04DX003 (ip), vehicle: saline 93 % of control | dose: 8.0 mg/kg/injection, schedule: Q01DX015 (ip), vehicle: carboxymethylcellulose (CMC) 105 % of control | dose: 10.0 mg/kg/injection, schedule: Q04DX003 (ip), vehicle: Klucel (hydroxypropylcellulose) (HPC) 103 % of control | dose: 12.5 mg/kg/injection, schedule: Q01DX001 (ip), vehicle: saline 98 % of control | dose: 12.5 mg/kg/injection, schedule: Q01DX009 (ip), vehicle: saline with Tween-80 115 % of control | dose: 12.5 mg/kg/injection, schedule: Q04DX003 (ip), vehicle: saline 97 % of control | dose: 20.0 mg/kg/injection, schedule: Q04DX003 (ip), vehicle: Klucel (hydroxypropylcellulose) (HPC) 100 % of control | dose: 25.0 mg/kg/injection, schedule: Q01DX001 (ip), vehicle: saline 97 % of control | dose: 25.0 mg/kg/injection, schedule: Q04DX003 (ip), vehicle: saline 97 % of control | dose: 40.0 mg/kg/injection, schedule: Q04DX003 (ip), vehicle: Klucel (hydroxypropylcellulose) (HPC) 97 % of control | dose: 80.0 mg/kg/injection, schedule: Q04DX003 (ip), vehicle: Klucel (hydroxypropylcellulose) (HPC) 100 % of control

O=[N+]([O-])C1CCC2CCC3CCCC1C32 (stereo not drawn)
inactive: dose: 25.0 mg/kg/injection, schedule: Q04DX002 (ip), vehicle: saline with Tween-80 97 % of control | dose: 50.0 mg/kg/injection, schedule: Q04DX002 (ip), vehicle: saline with Tween-80 91 % of control | [2] 101 % of control and 102 % of control | [20] 93 % of control
